According to ChEMBL document CHEMBL3351381, “Synthesis, structure-activity relationship studies, and antibacterial evaluation of 4-chromanones and chalcones, as well as olympicin A and derivatives” (J Med Chem, 2014):
Converted amounts (≈) assume the structure as drawn.

Key:
Type in all cases: functional
Klebsiella pneumoniae = assay: Antimicrobial activity against Klebsiella pneumoniae ATCC 33495 at >200 ug/ml by microbroth dilution method
Pseudomonas aeruginosa = assay: Antimicrobial activity against Pseudomonas aeruginosa PAO1 at >200 ug/ml by microbroth dilution method
Enterococcus faecalis = assay: Antimicrobial activity against Enterococcus faecalis ATCC 33186 by microbroth dilution method
Escherichia coli [1] = assay: Antimicrobial activity against Escherichia coli K-12 by microbroth dilution method
Escherichia coli [2] = assay: Antimicrobial activity against tolC-deficient Escherichia coli by microbroth dilution method
Staphylococcus aureus [3] = assay: Antimicrobial activity against methicillin-sensitive Staphylococcus aureus ATCC 29213 by microbroth dilution method
[4] = system: Mycobacterium tuberculosis; assay: Antimicrobial activity against Mycobacterium tuberculosis H37Rv by microbroth dilution method
Staphylococcus aureus [5] = assay: Antimicrobial activity against methicillin-resistant Staphylococcus aureus NRS 70 by microbroth dilution method

Compound	MIC (Klebsiella pneumoniae) [µg/mL]	MIC (Pseudomonas aeruginosa) [µg/mL]	MIC (Enterococcus faecalis) [µg/mL]	MIC (Escherichia coli [1]) [µg/mL]	MIC (Escherichia coli [2]) [µg/mL]	MIC (Staphylococcus aureus [3]) [µg/mL]	MIC [4] [µg/mL]	MIC (Staphylococcus aureus [5]) [µg/mL]
CCCCCCCC1CC(O)c2ccc(O)cc2O1 (stereo unspecified)	> 200	> 200	25 (≈ 94.6 µM)	> 200	6.25 (≈ 23.6 µM)	12.5 (≈ 47.3 µM)	25 (≈ 94.6 µM)	12.5 (≈ 47.3 µM)
C=CCOc1ccccc1C1CC(=O)c2c(O)cc(O)cc2O1 (stereo unspecified)	> 200	> 200	50 (≈ 160 µM)	> 200	6.25 (≈ 20 µM)	25 (≈ 80 µM)	> 200	12.5 (≈ 40 µM)
O=C1CC(C2CCCC2)Oc2cc(O)cc(O)c21 (stereo unspecified)	> 200	> 200	50 (≈ 201 µM)	> 200	6.25 (≈ 25.2 µM)	100 (≈ 403 µM)	200 (≈ 806 µM)	50 (≈ 201 µM)
C=CCOc1ccccc1/C=C/C(=O)c1c(O)cc(O)cc1O	> 200	> 200	50 (≈ 160 µM)	> 200	12.5 (≈ 40 µM)	> 200	> 200	25 (≈ 80 µM)
CCCCCCC1CC(=O)c2c(O)cc(O)cc2O1 (stereo unspecified)	> 200	> 200	100 (≈ 378 µM)	> 200	3.13 (≈ 11.8 µM)		50 (≈ 189 µM)	6.25 (≈ 23.6 µM)
CCCCCCCCCC1CC(O)c2ccc(O)cc2O1 (stereo unspecified)	> 200	> 200	50 (≈ 171 µM)	> 200	12.5 (≈ 42.7 µM)	20 (≈ 68.4 µM)	> 200	25 (≈ 85.5 µM)
CCCC1C/C(=N\O)c2c(O)cc(O)cc2O1 (stereo unspecified)	> 200	> 200	100 (≈ 421 µM)	> 200	25 (≈ 105 µM)	100 (≈ 421 µM)	100 (≈ 421 µM)	50 (≈ 211 µM)
CC(C)=CCCC(C)CC1CC(=O)c2c(O)cccc2O1 (stereo unspecified)	> 200	> 200	> 200	> 200	> 200	> 200	> 200	> 200
CCCCCCCC1CC(=O)c2c(OCOC)cc(OCOC)cc2O1 (stereo unspecified)	> 200	> 200	> 200	> 200	12.5 (≈ 34.1 µM)	> 200	50 (≈ 136 µM)	> 200
COCOc1cc(OCOC)c2c(c1)OC(CC(C)CCC=C(C)C)CC2=O (stereo unspecified)	> 200	> 200	> 200	> 200	> 200	> 200	> 200	> 200
COCOc1ccc(C(=O)/C=C/C2=CCC3CC2C3(C)C)c(O)c1 (stereo unspecified)	> 200	> 200	> 200	> 200	25 (≈ 76.1 µM)	> 200	100 (≈ 304 µM)	> 200
CCCCCCCC1CC(=O)c2ccc(O)cc2O1 (stereo unspecified)	> 200	> 200	> 200	> 200	1.56 (≈ 5.95 µM)	> 200	50 (≈ 191 µM)	> 200
CCCCCCCCCC1CC(=O)c2ccc(O)cc2O1 (stereo unspecified)	> 200	> 200	200 (≈ 689 µM)	> 200	> 200	> 200	> 200	> 200
CCCCCCC1CC(O)c2ccc(O)cc2O1 (stereo unspecified)	> 200	> 200	50 (≈ 200 µM)	> 200	3.13 (≈ 12.5 µM)	> 200	50 (≈ 200 µM)	200 (≈ 799 µM)
CCCC1CC(O)c2ccc(O)cc2O1 (stereo unspecified)	> 200	> 200	100 (≈ 480 µM)	> 200	50 (≈ 240 µM)	50 (≈ 240 µM)	12.5 (≈ 60 µM)	50 (≈ 240 µM)
CC1(C)C2CC=C(C3CC(=O)c4ccc(O)cc4O3)C1C2 (stereo unspecified)	> 200	> 200	> 200	> 200	6.25 (≈ 22 µM)	200 (≈ 703 µM)	> 200	200 (≈ 703 µM)
C=CCOc1ccc(/C=C/C(=O)c2ccc(O)cc2O)cc1	> 200	> 200	100 (≈ 337 µM)	> 200	> 200	25 (≈ 84.4 µM)	50 (≈ 169 µM)	> 200
CC(C)=CCCC(C)CC1CC(=O)c2cc(O)ccc2O1 (stereo unspecified)	> 200	> 200	6.25 (≈ 21.7 µM)	> 200	3.13 (≈ 10.9 µM)	6.25 (≈ 21.7 µM)	200 (≈ 694 µM)	12.5 (≈ 43.3 µM)
NC[C@H]1O[C@H](O[C@H]2[C@H](O)[C@@H](O[C@H]3O[C@H](CO)[C@@H](O)[C@H](N)[C@H]3O)[C@H](N)C[C@@H]2N)[C@H](O)[C@@H](O)[C@@H]1O [KANAMYCIN]	> 200	> 200	25 (≈ 51.6 µM)	3.13 (≈ 6.46 µM)	< 0.2	1.56 (≈ 3.22 µM)		50 (≈ 103 µM)
NNC(=O)c1ccncc1 [ISONIAZID]							0.03 (≈ 0.219 µM)	
